Source: article PMC4977651, “Molecular features of biguanides required for targeting of mitochondrial respiratory complex I and activation of AMP-kinase” (BMC Biology, 2016)
Values joined by “and” are separate entries in the source; they are usually repeats but may differ in a detail not shown here. Equal values may be shown once.

How the values were obtained:
[1] = test system: 143B cells; test: Rotenone-sensitive oxygen consumption rate in intact 143B cells; type: cell-based, human; settings: for rotenone sensitive OCR after 6 hours of biguanide exposure, % control, average / rotenone sensitive OCR after 6 hours of biguanide exposure, average: 143B cells, biguanide at IC50/10; for rotenone sensitive OCR after 6 hours of biguanide exposure, average: OCR normalized to OCR immediately prior to biguanide addition
Method: (§1) 143B (CRL-8303 from ATCC), HepG2 (85011430 from The Health Protection Agency), and MDBK (CCL-22 from ATCC) cells were grown on Dulbecco’s modified Eagle’s medium (DMEM) supplemented with 10 % fetal bovine serum (FBS, Thermo Fisher Scientific) at 37 °C in 5 % CO2. All cells were confirmed as negative for mycoplasma.
(§2) Oxygen consumption rates (OCRs) were measured using a Seahorse XF96 extracellular flux analyzer at 37 °C. For intact cell measurements, 1.4 × 10^4 143B, HepG2, or MDBK cells were plated (per well) in DMEM containing 10 % FBS into Seahorse Bioscience Inc. XF96 plates and incubated for ~12 h at 37 °C in 5 % CO2. Then, the medium was exchanged for assay buffer containing DMEM, 4.5 g L^−1 glucose, 1 mM pyruvate, 32 mM NaCl, 2 mM GlutaMAX, 15 mg L^−1 phenol red, and 20 mM HEPES (pH 7.4 at 37 °C) and the cells placed in a CO2-free incubator at 37 °C for 30 min. Basal oxygen consumption rates were established before the addition of biguanides at one-tenth of their IC50 (IC50/10), and followed for ~ 6 h before the addition of rotenone (2 μM).
(§3) Rotenone-sensitive OCRs were calculated by subtracting the rotenone-insensitive rates (determined at the end of the experiment). OCRs were normalized by dividing by the OCR recorded immediately prior to the addition of biguanide. For rate of uptake calculations, the OCRs at time points after biguanide addition were divided by the OCRs at the same time points in control experiments. Data from wells with failed port injections were excluded from the analyses. The respiratory control ratio (RCR) values (state III versus state IV respiration) were ~11 and ~6 for permeabilized MDBK and 143B cells, respectively.

[2] = test system: AMPK-α (phospho-Thr172); test: AMPK activation, western blot of phospho-AMPK-α in MDBK cells; type: cell-based, Bos taurus; settings: for p-alpha, average normalised to control: Averages of experiments 1-3, 18 hours; for p-alpha: band intensity
Method: MDBK cells were seeded at 1 × 10^6 cells per 6 cm dish in DMEM containing 10 % FBS. […] After 18 h cells were harvested by a rapid lysis procedure: cells were rinsed with PBS, then lysed using ice-cold buffer containing 50 mM HEPES, 1 mM EDTA, 10 % glycerol, 50 mM NaF, 5 mM sodium pyrophosphate, 1 % Triton-X100, 1 mM dithiothreitol (DTT), and a protease inhibitor cocktail (Roche). The cell lysate was centrifuged at 14,000 × g for 20 min at 4 °C and the protein concentration of the supernatant determined by bicinchoninic acid assay. The lysate was analyzed using Novex 3–12 % bis-Tris gels run in 3-(N-morpholino)propanesulfonic acid (MOPS) buffer (20 μg of protein per lane) followed by transfer to low fluorescence polyvinylidene fluoride membranes by wet transfer. Primary rabbit antibodies for AMPK-β (57C12), AMPK-α (phospho-Thr172) (40H9), and acetyl-coA carboxylase (phospho-Ser79) (Cell Signaling Technology) were incubated overnight with the membrane (1:1000 dilution) in Odyssey blocking buffer at 4 °C. A fluorescent secondary antibody was used (IRDYE800CW from LI-COR Biosciences, 1:20,000 dilution) with a LI-COR Odyssey imaging system.

[3] = test system: permeabilized MDBK cells; test: ADP-stimulated rotenone-sensitive OCR in permeabilized MDBK cells; type: cell-based, Bos taurus; set-up: rotenone sensitive OCR after ADP stimulation, average / rotenone sensitive OCR after ADP stimulation: unit not given here; settings: for rotenone sensitive OCR after ADP stimulation, % of control, average / rotenone sensitive OCR after ADP stimulation, average / rotenone sensitive OCR after ADP stimulation / rotenone sensitive OCR after ADP stimulation, % of control: MDBK permeabilised cells; for rotenone sensitive OCR after ADP stimulation, % of control, average / rotenone sensitive OCR after ADP stimulation, average: average of replicates; for rotenone sensitive OCR after ADP stimulation / rotenone sensitive OCR after ADP stimulation, % of control: individual replicates
Method: For permeabilized cell experiments, cells were seeded into XF96 plates at 0.9–1.1 × 10^4 per well and incubated for 48 h at 37 °C in 5 % CO2. Then, the growth medium was exchanged for assay buffer containing 3 nM plasma membrane permeabilizer ‘PMP’ (Seahorse Biosciences Inc.), 10 mM glutamate, 10 mM malate, 220 mM mannitol, 70 mM sucrose, 10 mM KH2PO4, 5 mM MgCl2, 1 mM EGTA, 0.2 % fatty acid-free bovine serum albumin (BSA), and 2 mM HEPES (pH 7.4 at 37 °C). […] The biguanides were allowed to accumulate for 30 min, then respiration was […] by the addition of 4 mM ADP. Rotenone was added (2 μM) at the end of the experiment.
as §3

[4] = test system: MDBK cells; test: Rotenone-sensitive oxygen consumption rate in intact MDBK cells; type: cell-based, Bos taurus; set-up: key to rotenone sensitive OCR after 40 mins of biguanide exposure / rotenone sensitive OCR after 40 mins of biguanide exposure, average: % of OCR recorded immediately before biguanide addition; settings: biguanide at IC50/10; for rotenone sensitive OCR after 6 hours of biguanide exposure, % control, average / rotenone sensitive OCR after 6 hours of biguanide exposure, average: MDBK cells; for rotenone sensitive OCR after 6 hours of biguanide exposure, average: OCR normalized to OCR immediately prior to biguanide addition; for rotenone sensitive OCR after 40 mins of biguanide exposure, % control, average / rotenone sensitive OCR after 40 mins of biguanide exposure, average / rotenone sensitive OCR after 40 mins of biguanide exposure / rotenone sensitive OCR after 40 mins of biguanide exposure, % control: MDBK intact cells; for rotenone sensitive OCR after 40 mins of biguanide exposure, % control, average / rotenone sensitive OCR after 40 mins of biguanide exposure, average: average of replicates; for rotenone sensitive OCR after 40 mins of biguanide exposure / rotenone sensitive OCR after 40 mins of biguanide exposure, % control: individual replicates
Method: as §1, §2, §3

[5] = test system: HepG2 cells; test: Rotenone-sensitive oxygen consumption rate in intact HepG2 cells; type: cell-based, human; settings: for rotenone sensitive OCR after 6 hours of biguanide exposure, % control, average / rotenone sensitive OCR after 6 hours of biguanide exposure, average: HEPG2 cells, biguanide at IC50/10; for rotenone sensitive OCR after 6 hours of biguanide exposure, average: OCR normalized to OCR immediately prior to biguanide addition
Method: as §1, §2, §3

SMILES	rotenone sensitive OCR after 6 hours of biguanide exposure, % control, average [1] [% control]	rotenone sensitive OCR after 6 hours of biguanide exposure, average [1]	p-alpha, average normalised to control [2]	p-alpha / AMPK beta ([2]; Experiment 1, 18 hours)	p-alpha / AMPK beta normalised to control ([2]; Experiment 1, 18 hours)	p-alpha ([2]; Experiment 1, 18 hours)	p-alpha / AMPK beta ([2]; Experiment 2, 18 hours)	p-alpha / AMPK beta normalised to control ([2]; Experiment 2, 18 hours)	p-alpha ([2]; Experiment 2, 18 hours)	p-alpha / AMPK beta ([2]; Experiment 3, 18 hours)	p-alpha / AMPK beta normalised to control ([2]; Experiment 3, 18 hours)	p-alpha ([2]; Experiment 3, 18 hours)	rotenone sensitive OCR after ADP stimulation, % of control, average [3]	rotenone sensitive OCR after ADP stimulation, average [3]	rotenone sensitive OCR after ADP stimulation, % of control, average ([3]; biguanide at IC50/5)	rotenone sensitive OCR after ADP stimulation, average ([3]; biguanide at IC50/5)	rotenone sensitive OCR after ADP stimulation ([3]; biguanide at IC50/5)	rotenone sensitive OCR after ADP stimulation, % of control ([3]; biguanide at IC50/5)	rotenone sensitive OCR after 6 hours of biguanide exposure, % control, average [4] [% control]	rotenone sensitive OCR after 6 hours of biguanide exposure, average [4]	further results
[H]/N=C(/N)N/C(=N/[H])NCCc1ccccc1 [phenformin, reference compound]	9.47	11.10	3.64	0.44	3.54	203	0.63	4.29	234	0.64	3.08	154	14.11 % of control	39.76	14.11 % of control	39.76	45.64 and 68.90 and 0.07 and 37.54 and 39.83 and 25.16 and 62.96 and 38.03	16.19 % of control and 24.45 % of control and 0.025 % of control and 13.32 % of control and 14.13 % of control and 8.93 % of control and 22.34 % of control and 13.49 % of control	42.78	42.91	AMPK activation (in words) ([2]; 18-h treatment, IC50/10 biguanide concentrations): slightly lower activation; rotenone sensitive OCR after 40 mins of biguanide exposure, % control, average [4]: 95.24 % control; rotenone sensitive OCR after 40 mins of biguanide exposure, average [4]: 96.91; rotenone sensitive OCR after 40 mins of biguanide exposure [4]: 97.35 and 95.76 and 94.48 and 101.29 and 95.15 and 97.44; rotenone sensitive OCR after 40 mins of biguanide exposure, % control [4]: 95.67 % control and 94.11 % control and 92.85 % control and 99.55 % control and 93.51 % control and 95.76 % control; rotenone sensitive OCR after 6 hours of biguanide exposure, % control, average [5]: 1.73 % control; rotenone sensitive OCR after 6 hours of biguanide exposure, average [5]: 1.79
NC(N)=NC(N)=NCc1ccccc1 [compound 3, 2-benzyl-1-(diaminomethylidene)guanidine]	3.11	3.64	10.88	1.27	10.17	594	1.33	9.10	402	2.78	13.38	628	12.04 % of control	33.92	12.04 % of control	33.92	60.28 and 86.89 and -11.73 and 15.23 and 8.14 and 44.74	21.39 % of control and 30.83 % of control and -4.16 % of control and 5.40 % of control and 2.89 % of control and 15.88 % of control	18.14	18.19	inhibition of rotenone-sensitive respiration (in words) ([1]; intact 143B cells, biguanide at IC50/10, monitored for 6 h): inhibit respiration; inhibition of OCR ([3]; MDBK cells, 30 min, data used for Fig. 4c matrix concentration estimate): exceeded 90%; accumulation into mitochondria (matrix concentration relative to extracellular medium) ([3]; permeabilized MDBK cells, after 30 min of biguanide exposure, IC50/5): more than 200 fold; rotenone sensitive OCR after 40 mins of biguanide exposure, % control, average [4]: 88.51 % control; rotenone sensitive OCR after 40 mins of biguanide exposure, average [4]: 90.06; rotenone sensitive OCR after 40 mins of biguanide exposure [4]: 86.89 and 91.07 and 89.16 and 91.81 and 91.02 and 90.42; rotenone sensitive OCR after 40 mins of biguanide exposure, % control [4]: 85.39 % control and 89.50 % control and 87.62 % control and 90.23 % control and 89.45 % control and 88.86 % control; rotenone sensitive OCR after 6 hours of biguanide exposure, % control, average [5]: 1.26 % control; rotenone sensitive OCR after 6 hours of biguanide exposure, average [5]: 1.29; inhibition of rotenone-sensitive respiration (in words) ([5]; intact HepG2 cells, biguanide at IC50/10, monitored for 6 h): inhibit respiration
[H]/N=C(\N/C(=N/[H])Nc1ccc(Cl)cc1)NC(C)C [proguanil, reference compound]	94.32	110.56	1.33	0.15	1.20	71.3	0.19	1.32	68.2	0.30	1.47	59.7	105.17 % of control	296.39	105.17 % of control	296.39	272.71 and 215.77 and 253.06 and 330.67 and 409.72	96.77 % of control and 76.56 % of control and 89.79 % of control and 117.34 % of control and 145.38 % of control	89.87	90.15	rotenone sensitive OCR after 40 mins of biguanide exposure, % control, average [4]: 96.96 % control; rotenone sensitive OCR after 40 mins of biguanide exposure, average [4]: 98.65; rotenone sensitive OCR after 40 mins of biguanide exposure [4]: 102.33 and 100.74 (2×) and 97.32 and 96.18 and 94.63; rotenone sensitive OCR after 40 mins of biguanide exposure, % control [4]: 100.56 % control and 99.00 % control and 99.01 % control and 95.64 % control and 94.52 % control and 93.00 % control; rotenone sensitive OCR after 6 hours of biguanide exposure, % control, average [5]: 93.06 % control; rotenone sensitive OCR after 6 hours of biguanide exposure, average [5]: 95.98
